Measurements as given in publication PMC7204524 (Tetrahedron, 2020).

Biological target: T1, T. brucei methionyl-tRNA synthetase (TbMetRS) (Trypanosoma brucei, UniProt Q38C91)
T1 sequence (Q38C91 1-773): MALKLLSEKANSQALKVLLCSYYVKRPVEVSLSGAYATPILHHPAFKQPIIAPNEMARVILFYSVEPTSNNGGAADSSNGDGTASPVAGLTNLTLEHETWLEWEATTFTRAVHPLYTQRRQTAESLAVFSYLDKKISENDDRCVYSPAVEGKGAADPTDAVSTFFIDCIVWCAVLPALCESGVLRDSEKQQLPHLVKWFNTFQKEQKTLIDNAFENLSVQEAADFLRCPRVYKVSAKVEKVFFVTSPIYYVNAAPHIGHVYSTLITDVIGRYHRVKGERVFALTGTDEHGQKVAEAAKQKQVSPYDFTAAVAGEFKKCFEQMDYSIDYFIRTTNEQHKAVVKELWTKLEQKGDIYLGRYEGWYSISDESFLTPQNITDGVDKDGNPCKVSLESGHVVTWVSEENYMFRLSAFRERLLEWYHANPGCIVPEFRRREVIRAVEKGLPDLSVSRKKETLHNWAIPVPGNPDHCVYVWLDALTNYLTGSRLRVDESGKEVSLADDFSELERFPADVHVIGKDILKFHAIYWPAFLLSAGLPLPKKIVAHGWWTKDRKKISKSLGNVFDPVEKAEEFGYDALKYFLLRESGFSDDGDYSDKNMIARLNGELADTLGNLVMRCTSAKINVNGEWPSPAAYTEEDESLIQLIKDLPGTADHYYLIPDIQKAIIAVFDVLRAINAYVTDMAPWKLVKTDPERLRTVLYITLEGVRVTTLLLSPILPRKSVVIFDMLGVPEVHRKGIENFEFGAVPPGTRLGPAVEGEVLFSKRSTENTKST
Test: colorimetric pyrophosphatase-coupled inhibition assay
Type: biochemical

SMILES: C[C@@H](O)[C@@H]1C(=O)N(CCc2c[nH]c3ccccc23)CC[C@@H]1N(C)Cc1cc(Cl)cc(Cl)c1 (racemic) [14a, (3R,4S)-1-(2-(1H-Indol-3-yl)ethyl)-4-((3,5-dichlorobenzyl)(methyl)amino)-3-((R)-1-hydroxyethyl)piperidin-2-one]
- %: 15–30 % inhibition at 200 μM
